Here are results for three compounds from ChEMBL document CHEMBL5729236, “CIS-morpholinone and other compounds as MDM2 inhibitors for the treatment of cancer” (2022).

This assay has as its target E3 ubiquitin-protein ligase Mdm2 (Homo sapiens, UniProt Q00987). Nature of the assay: HTRF2 Assay: As the potencies of the HDM2 inhibitors increased, an improved HTRF assay (HTRF2 assay) was developed. All assay conditions remained the same as described above, with the exception of the following changes in reagent concentrations: 0.2 nM GST-hMDM2 (1-188), 0.5 nM biotinylated-p53 (1-83), 0.18 nM SA-XLent, and 100 mM KF.

Sequence of E3 ubiquitin-protein ligase Mdm2 (Q00987 whole entry): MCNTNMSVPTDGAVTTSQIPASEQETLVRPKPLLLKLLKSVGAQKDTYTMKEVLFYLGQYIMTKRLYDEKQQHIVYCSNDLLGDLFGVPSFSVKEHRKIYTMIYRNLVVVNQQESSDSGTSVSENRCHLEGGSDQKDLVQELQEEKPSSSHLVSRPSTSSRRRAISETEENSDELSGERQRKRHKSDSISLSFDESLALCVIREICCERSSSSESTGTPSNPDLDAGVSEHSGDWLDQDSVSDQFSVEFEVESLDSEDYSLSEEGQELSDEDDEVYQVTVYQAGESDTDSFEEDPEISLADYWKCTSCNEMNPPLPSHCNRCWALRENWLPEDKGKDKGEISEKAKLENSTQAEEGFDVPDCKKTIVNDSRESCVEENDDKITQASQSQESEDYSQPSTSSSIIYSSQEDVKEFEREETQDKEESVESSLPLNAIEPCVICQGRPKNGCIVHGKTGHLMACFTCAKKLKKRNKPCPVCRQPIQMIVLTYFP

`CCC[C@H](C(=O)N1CC(C(=O)O)C1)N1C(=O)[C@H](Cc2ccc(F)cc2)O[C@@H](c2ccc(Cl)cc2)[C@H]1c1ccc(Cl)cc1` (mixture of isomers) came in with an IC50 of 524 nM.
For `CCC[C@H](C(=O)O)N1C(=O)CO[C@@H](c2ccc(Cl)cc2)[C@H]1c1cc2ccccc2[nH]1` (mixture of isomers), the IC50 worked out at 1290 nM.
The figure for `O=C1[C@H](CCCO)O[C@@H](c2cccc(Cl)c2)[C@@H](c2ccc(Cl)cc2)N1CC1CC1` (mixture of isomers) is 7230 nM.
